Data reported in US20120157471A1, “BENZIMIDAZOLE DERIVATIVES” (PFIZER INC., priority 2009, published 2012).
pIC50: −log10 of the molar value.

Key:
[1] = biological target: T1, human Smo (amino acids 181-787) (Homo sapiens, UniProt Q99835); test: Smo radioligand competition binding assay (displacement of 3H-PF-03451358 from HEK293 membranes); settings: for inhibition at 0.05 µM: 0.05 μM test compound, displacement of 3H-PF-03451358, read-out: SMO % inh. @ 0.05 μM; for pIC50: radioligand competition binding
T1 construct: expressed in transfected cells; membrane preparation
T1 sequence (Q99835 181-787): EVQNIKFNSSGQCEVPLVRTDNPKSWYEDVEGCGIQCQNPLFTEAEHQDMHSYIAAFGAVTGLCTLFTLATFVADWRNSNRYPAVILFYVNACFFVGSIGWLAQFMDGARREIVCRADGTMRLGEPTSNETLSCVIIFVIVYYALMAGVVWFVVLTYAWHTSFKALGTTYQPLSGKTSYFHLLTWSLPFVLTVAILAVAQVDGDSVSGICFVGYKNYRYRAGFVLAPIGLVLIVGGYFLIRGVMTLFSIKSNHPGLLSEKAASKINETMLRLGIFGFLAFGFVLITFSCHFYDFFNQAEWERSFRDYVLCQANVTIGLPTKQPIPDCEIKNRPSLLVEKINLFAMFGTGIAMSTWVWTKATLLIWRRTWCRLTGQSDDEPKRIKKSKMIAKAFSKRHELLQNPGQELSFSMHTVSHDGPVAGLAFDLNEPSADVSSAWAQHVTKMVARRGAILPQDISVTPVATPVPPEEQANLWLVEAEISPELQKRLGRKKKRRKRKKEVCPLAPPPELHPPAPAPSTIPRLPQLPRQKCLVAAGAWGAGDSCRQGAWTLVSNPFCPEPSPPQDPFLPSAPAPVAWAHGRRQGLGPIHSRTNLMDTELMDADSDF
In short: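 Displacement of 3 nM tritiated PF-03451358 measured by filtration and scintillation counting after 2 h at room temperature, using 40 μg/well HEK293 membranes bearing cell-surface Smo 181-787, pH 7.5 buffer. Specific binding defined against 30 μM unlabelled ligand; IC50 via variable-slope sigmoidal fit.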

[2] = system: Gli-Luc/MEF cells (Smo); test: Gli-Luc/MEF assay (Shh-stimulated luciferase reporter under the Gli response element); assay type: cell-based, mouse; settings: Mus musculus, MEF, 48 h
In short: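 IC50 derived from luminescence (Bright-Glo) after 48 h at 37° C, 5% CO2, with compound at […] (3-fold dilutions) added together with mouse Shh at 2 μg/mL final. Cells: MEFs from Gli-Luc transgenic mice.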

Compound	inhibition at 0.05 µM [1]	pIC50 [1]	pIC50 [2]
COC1CCOC2(CCN(c3cc(-c4nc5ccccc5n4C)c(Cl)cn3)CC2)C1 (stereo not drawn) [Example A-90, 9-[5-chloro-4-(1-methyl-1H-benzimidazol-2-yl)pyridin-2-yl]-4-methoxy-1-oxa-9-azaspiro[5.5]undecane]	88%	7.15	7.80
CNC(=O)N(C)C1CCN(c2cc(-c3nc4ccccc4n3C)c(Cl)cn2)CC1 [Example A-179, 1-{1-[5-chloro-4-(1-methyl-1H-benzimidazol-2-yl)pyridin-2-yl]piperidin-4-yl}-1,3-dimethylurea]	97%	8.00	8.15
Cc1ccc(N2CCC(S(C)(=O)=O)CC2)nc1-c1nc2ccccc2n1C [Example E-6, 1-methyl-2-{3-methyl-6-[4-(methylsulfonyl)piperidin-1-yl]pyridin-2-yl}-1H-benzimidazole]	89%	7.29	7.21
CC(=O)NC1CCN(c2cc(-c3nc4ccccc4n3C)c(Cl)cn2)C1 (stereo in doubt) [Example A-116, N-{(3R)-1-[5-chloro-4-(1-methyl-1H-benzimidazol-2-yl)pyridin-2-yl]pyrrolidin-3-yl}acetamide]	68%		7.07
Cn1c(-c2cc(N3CCN(C4CCS(=O)(=O)C4)CC3)ncc2Cl)nc2ccccc21 (stereo not drawn) [Example A-86, 2-{5-chloro-2-[4-(1,1-dioxidotetrahydro-3-thienyl)piperazin-1-yl]pyridin-4-yl}-1-methyl-1H-benzimidazole]	90%	7.21	7.37
COCc1nc(C2CCN(c3cc(-c4nc5ccccc5n4C)c(Cl)cn3)CC2)no1 [Example A-49, 2-(5-chloro-2-{4-[5-(methoxymethyl)-1,2,4-oxadiazol-3-yl]piperidin-1-yl}pyridin-4-yl)-1-methyl-1H-benzimidazole]	100%	7.96	8.15
C[C@H]1CN(c2cc(-c3nc4ccccc4n3C)c(Cl)cn2)CCN1 [Example A-160, 2-{5-chloro-2-[(3S)-3-methylpiperazin-1-yl]pyridin-4-yl}-1-methyl-1H-benzimidazole]	98%	7.80	8.15
Cn1c(-c2cc(N3CCCN(C4=NCCC(=O)N4)CC3)ncc2Cl)nc2ccccc21 [Example A-130, 2-{4-[5-chloro-4-(1-methyl-1H-benzimidazol-2-yl)pyridin-2-yl]-1,4-diazepan-1-yl}-5,6-dihydropyrimidin-4(3H)-one]	53%		6.89
CC(=O)N1CCC(N(C)c2cc(-c3nc4ccccc4n3C)c(Cl)cn2)CC1 [Example A-58, N-(1-acetylpiperidin-4-yl)-5-chloro-N-methyl-4-(1-methyl-1H-benzimidazol-2-yl)pyridin-2-amine]	97%	7.82	7.51
CNC(=O)c1[nH]nc2c1CN(c1cc(-c3nc4ccccc4n3C)c(Cl)cn1)CC2 [Example A-114, 5-[5-chloro-4-(1-methyl-1H-benzimidazol-2-yl)pyridin-2-yl]-N-methyl-4,5,6,7-tetrahydro-1H-pyrazolo[4,3-c]pyridine-3-carboxamide]	71%	6.85	7.33
Cn1c(-c2cc(N3CCC(C(=O)NCC(C)(C)O)CC3)ncc2Cl)nc2ccccc21 [Example A-212, 1-[5-chloro-4-(1-methyl-1H-benzimidazol-2-yl)pyridin-2-yl]-N-(2-hydroxy-2-methylpropyl)piperidine-4-carboxamide]	99%	7.92	7.54
Cn1c(-c2cc(NCCS(N)(=O)=O)ncc2Cl)nc2ccccc21 [Example A-165, 2-{[5-chloro-4-(1-methyl-1H-benzimidazol-2-yl)pyridin-2-yl]amino}ethanesulfonamide]	62%	6.43	6.55
COC(=O)N1CCN(c2cccc(-c3nc4ccccc4n3C)n2)CC1 [Example B-9, methyl 4-[6-(1-methyl-1H-benzimidazol-2-yl)pyridin-2-yl]piperazine-1-carboxylate]	82%	6.91	6.84
Cn1c(-c2cc(N3CCC(O)(c4ccn[nH]4)C3)ncc2Cl)nc2ccccc21 (stereo not drawn) [Example A-105, 1-[5-chloro-4-(1-methyl-1H-benzimidazol-2-yl)pyridin-2-yl]-3-(1H-pyrazol-5-yl)pyrrolidin-3-ol]	79%	7.19	7.62
Cn1c(-c2cc(N3CC[C@@H](O)[C@H](O)C3)ncc2Cl)nc2ccccc21 [Example A-63, (3R,4R)-1-[5-chloro-4-(1-methyl-1H-benzimidazol-2-yl)pyridin-2-yl]piperidine-3,4-diol]	95%	7.60	7.74
Cn1c(-c2cc(N3CCOCC(Cc4ncccn4)C3)ncc2Cl)nc2ccccc21 (stereo not drawn) [Example A-112, 2-{5-chloro-2-[6-(pyrimidin-2-ylmethyl)-1,4-oxazepan-4-yl]pyridin-4-yl}-1-methyl-1H-benzimidazole]	72%	6.80	6.94
CC(=O)N1CCN(c2ncc(Cl)c(-c3nc4ccccc4n3C)n2)CC1 [Example C-1, 2-[2-(4-Acetylpiperazin-1-yl)-5-chloropyrimidin-4-yl]-1-methyl-1H-benzimidazole]	96%	7.92	8.15
CNC(=O)N1CCN(c2cc(-c3nc4ccccc4n3C)ccn2)CC1 [Example A-144, N-methyl-4-[4-(1-methyl-1H-benzimidazol-2-yl)pyridin-2-yl]piperazine-1-carboxamide]	78%	7.05	6.80
COC(=O)N(C)C1CN(c2cc(-c3nc4ccccc4n3C)c(Cl)cn2)C1 [Example A-150, methyl {1-[5-chloro-4-(1-methyl-1H-benzimidazol-2-yl)pyridin-2-yl]azetidin-3-yl}methylcarbamate]	87%	7.25	7.64
Cn1c(-c2cc(N3C[C@H]4C[C@@H]3CN4S(C)(=O)=O)ncc2Cl)nc2ccccc21 [Example A-146, 2-{5-chloro-2-[(1R,4R)-5-(methylsulfonyl)-2,5-diazabicyclo[2.2.1]hept-2-yl]pyridin-4-yl}-1-methyl-1H-benzimidazole]	75%	6.69	7.04
Cn1c(-c2ccnc(N3CCC(NS(C)(=O)=O)CC3)c2)nc2ccccc21 [Example A-17, N-{1-[4-(1-methyl-1H-benzimidazol-2-yl)pyridin-2-yl]piperidin-4-yl}methanesulfonamide]	99%	7.89	8.22
CNC(=O)N1CCN(c2cccc(-c3nc4ccccc4n3C)n2)CC1 [Example B-10, N-methyl-4-[6-(1-methyl-1H-benzimidazol-2-yl)pyridin-2-yl]piperazine-1-carboxamide]	72%	7.09	7.05
Cn1c(-c2ccnc(N3CCC(O)CC3)c2)nc2ccccc21 [Example A-18, 1-[4-(1-methyl-1H-benzimidazol-2-yl)pyridin-2-yl]piperidin-4-ol]	79%	7.12	6.94
Cn1c(-c2cc(N3CCNC(=O)CC3)ncc2Cl)nc2ccccc21 [Example A-33, 1-[5-chloro-4-(1-methyl-1H-benzimidazol-2-yl)pyridin-2-yl]-1,4-diazepan-5-one]	98%	8.05	8.10
Cn1c(-c2cc(N3CCC(NS(C)(=O)=O)CC3)ncc2Cl)nc2ccccc21 [Example A-5, N-{1-[5-chloro-4-(1-methyl-1H-benzimidazol-2-yl)pyridin-2-yl]piperidin-4-yl}methanesulfonamide]	97%	8.10	9.22
Cn1c(-c2nc(N3CCC(NS(C)(=O)=O)CC3)ncc2Cl)nc2ccccc21 [Example C-9, N-{1-[5-chloro-4-(1-methyl-1H-benzimidazol-2-yl)pyrimidin-2-yl]piperidin-4-yl}methanesulfonamide]	100%	8.22	8.70
Cn1c(-c2cc(N3CCC(O)(c4cncnc4)C3)ncc2Cl)nc2ccccc21 (stereo not drawn) [Example A-128, 1-[5-chloro-4-(1-methyl-1H-benzimidazol-2-yl)pyridin-2-yl]-3-pyrimidin-5-ylpyrrolidin-3-ol]	54%		7.10
Cn1c(-c2nc(N3CCN(S(C)(=O)=O)CC3)ncc2Cl)nc2ccccc21 [Example C-3, 2-{5-Chloro-2-[4-(methylsulfonyl)piperazin-1-yl]pyrimidin-4-yl}-1-methyl-1H-benzimidazole]	96%	8.05	7.72
Cn1c(-c2cc(N3CCOCC(CO)C3)ncc2Cl)nc2ccccc21 (stereo not drawn) [Example A-47, {4-[5-chloro-4-(1-methyl-1H-benzimidazol-2-yl)pyridin-2-yl]-1,4-oxazepan-6-yl}methanol]	101%	8.05	8.15
Cn1c(-c2nc(N3CCC(S(C)(=O)=O)CC3)ncc2Cl)nc2ccccc21 [Example C-14, 2-{5-chloro-2-[4-(methylsulfonyl)piperidin-1-yl]pyrimidin-4-yl}-1-methyl-1H-benzimidazole]	90%	7.37	7.43
